The source made the active and inactive calls. How the calls were made is not given here.
System: CCRIS mutagenicity, Ames/micronucleus/aberration tests
Assay: CCRIS mutagenicity studies
[1] = Test System: AMES SALMONELLA TYPHIMURIUM, Strain/Indicator: TA98, Metabolic Activation: NONE, Method: PREINCUBATION
[2] = Test System: AMES SALMONELLA TYPHIMURIUM, Strain/Indicator: TA98, Metabolic Activation: RAT, LIVER, S-9, AROCLOR 1254 (10%), Method: PREINCUBATION
[3] = Test System: AMES SALMONELLA TYPHIMURIUM, Strain/Indicator: TA100, Metabolic Activation: HAMSTER, LIVER, S-9, AROCLOR 1254 (10%), Method: PREINCUBATION
[4] = Test System: AMES SALMONELLA TYPHIMURIUM, Strain/Indicator: TA100, Metabolic Activation: NONE, Method: PREINCUBATION
[5] = Test System: AMES SALMONELLA TYPHIMURIUM, Strain/Indicator: TA100, Metabolic Activation: RAT, LIVER, S-9, AROCLOR 1254 (10%), Method: PREINCUBATION
[6] = Test System: AMES SALMONELLA TYPHIMURIUM, Strain/Indicator: TA1535, Metabolic Activation: HAMSTER, LIVER, S-9, AROCLOR 1254 (10%), Method: PREINCUBATION
[7] = Test System: AMES SALMONELLA TYPHIMURIUM, Strain/Indicator: TA1535, Metabolic Activation: NONE, Method: PREINCUBATION
[8] = Test System: AMES SALMONELLA TYPHIMURIUM, Strain/Indicator: TA1535, Metabolic Activation: RAT, LIVER, S-9, AROCLOR 1254 (10%), Method: PREINCUBATION
[9] = Test System: AMES SALMONELLA TYPHIMURIUM, Strain/Indicator: TA1537, Metabolic Activation: HAMSTER, LIVER, S-9, AROCLOR 1254 (10%), Method: PREINCUBATION
[10] = Test System: AMES SALMONELLA TYPHIMURIUM, Strain/Indicator: TA1537, Metabolic Activation: NONE, Method: PREINCUBATION
[11] = Test System: AMES SALMONELLA TYPHIMURIUM, Strain/Indicator: TA1537, Metabolic Activation: RAT, LIVER, S-9, AROCLOR 1254 (10%), Method: PREINCUBATION
[12] = Test System: AMES SALMONELLA TYPHIMURIUM, Strain/Indicator: TA98, Metabolic Activation: HAMSTER, LIVER, S-9, AROCLOR 1254 (10%), Method: PREINCUBATION

Question: What does the source list for `Cc1cccc(Nc2cc(Cl)nc(SCC(=O)NCCO)n2)c1C`?
Answer: mutagenic call (Test System: AMES SALMONELLA TYPHIMURIUM, Strain/Indicator: TA98, Metabolic Activation: NONE): inactive; negative; mutagenic call (Test System: AMES SALMONELLA TYPHIMURIUM, Strain/Indicator: TA98, Metabolic Activation: RAT, LIVER, S-9, AROCLOR 1254): inactive; negative; mutagenic call (Test System: AMES SALMONELLA TYPHIMURIUM, Strain/Indicator: TA102, Metabolic Activation: NONE): inactive; negative; mutagenic call (Test System: AMES SALMONELLA TYPHIMURIUM, Strain/Indicator: TA102, Metabolic Activation: RAT, LIVER, S-9, AROCLOR 1254): inactive; negative; mutagenic call (Test System: AMES SALMONELLA TYPHIMURIUM, Strain/Indicator: TA104, Metabolic Activation: NONE): inactive; negative; mutagenic call (Test System: AMES SALMONELLA TYPHIMURIUM, Strain/Indicator: TA104, Metabolic Activation: RAT, LIVER, S-9, AROCLOR 1254): inactive; negative; mutagenic call (Test System: UDS RAT HEPATOCYTES, Strain/Indicator: THY INCORP, Metabolic Activation: NONE, Method: LIQUID SCINTILLATION COUNTING): active; positive

Question: What does the source list for `Nc1cccc(Cl)c1`?
Answer: mutagenic call (End Point: IN VITRO CHROMOSOMAL ABERRATIONS, Test System: CHL/IU CELLS, Metabolic Activation: NONE): active; positive (structural changes); mutagenic call (End Point: IN VITRO MICRONUCLEUS, Test System: CHL/IU CELLS, Metabolic Activation: NONE): active; positive; mutagenic call [1]: inactive; negative; mutagenic call [2]: inactive; negative; mutagenic call [3]: inactive; negative; mutagenic call [4]: inactive; negative; mutagenic call [5]: inactive; negative; mutagenic call [6]: inactive; negative; mutagenic call [7]: inactive; negative; mutagenic call [8]: inactive; negative; mutagenic call [9]: inactive; negative; mutagenic call [10]: inactive; negative; mutagenic call [11]: inactive; negative; mutagenic call (Test System: CHINESE HAMSTER V-79, Strain/Indicator: V-79/8-AZAGUANINE, Metabolic Activation: NONE, Method: SUSPENSION/PLATE): active; positive; mutagenic call (Test System: CHINESE HAMSTER V-79, Strain/Indicator: V-79/OUABAIN, Metabolic Activation: NONE, Method: SUSPENSION/PLATE): inactive; negative

Question: How did the mutagenic call (End Point: In vitro Chromosomal aberrations, Test System: Human lymphocytes, Metabolic Activation: None) turn out when `COP(=S)(OC)SCn1nnc2ccccc2c1=O` was run?
Answer: The mutagenic call was “inactive; negative; lymphocytes from 1 male and 1 female; azinphos-methyl purity 92.9%”.

Question: What about the mutagenic call (End Point: In vitro Chromosomal aberrations, Test System: Human lymphocytes, Metabolic Activation: Rat, liver, S-9) of the same compound?
Answer: The mutagenic call was “active; positive (structural and ploidy); lymphocytes from 1 male and 1 female; azinphos”.

Question: And the mutagenic call [12]?
Answer: Its mutagenic call is “inactive; negative”.

Question: And the mutagenic call [1]?
Answer: The mutagenic call was “inactive; negative”.

Question: What about the mutagenic call [2] of the same compound?
Answer: Its mutagenic call is “active; positive”.

Question: What about the mutagenic call [3] of the same compound?
Answer: The mutagenic call was “inactive; negative”.

Question: And the mutagenic call [4]?
Answer: Its mutagenic call is “inactive; negative”.

Question: And the mutagenic call [5]?
Answer: The mutagenic call was “inactive; negative”.

Question: And the mutagenic call [6]?
Answer: Its mutagenic call is “inactive; negative”.

Question: And the mutagenic call [7]?
Answer: Its mutagenic call is “inactive; negative”.

Question: And the mutagenic call [8]?
Answer: The mutagenic call was “inactive; negative”.

Question: What about the mutagenic call [9] of the same compound?
Answer: The mutagenic call was “inactive; negative”.

Question: And the mutagenic call [10]?
Answer: Its mutagenic call is “inactive; negative”.

Question: And the mutagenic call [11]?
Answer: The mutagenic call was “inactive; negative”.

Question: For `CC1(C)CC(N=C=O)CC(C)(CN=C=O)C1` (stereo unspecified), which mutagenic call [12] is on record?
Answer: Its mutagenic call is “inactive; negative”.

Question: And the mutagenic call [1]?
Answer: The mutagenic call was “inactive; negative”.

Question: What about the mutagenic call [2] of the same compound?
Answer: The mutagenic call was “inactive; negative”.

Question: And the mutagenic call [3]?
Answer: Its mutagenic call is “inactive; negative”.

Question: What about the mutagenic call [4] of the same compound?
Answer: The mutagenic call was “inactive; negative”.

Question: And the mutagenic call [5]?
Answer: The mutagenic call was “inactive; negative”.

Question: What about the mutagenic call [6] of the same compound?
Answer: The mutagenic call was “inactive; negative”.

Question: What about the mutagenic call [7] of the same compound?
Answer: Its mutagenic call is “inactive; negative”.

Question: And the mutagenic call [8]?
Answer: Its mutagenic call is “inactive; negative”.

Question: And the mutagenic call [9]?
Answer: The mutagenic call was “inactive; negative”.

Question: And the mutagenic call [10]?
Answer: Its mutagenic call is “inactive; negative”.

Question: And the mutagenic call [11]?
Answer: The mutagenic call was “inactive; negative”.

Question: How did the mutagenic call [1] turn out when `N#CC(C#N)=Cc1ccc([N+](=O)[O-])o1` was run?
Answer: Its mutagenic call is “active; positive”.

Question: With `COP(=S)(OC)SCN1C(=O)c2ccccc2C1=O` as the compound, how does the mutagenic call (Test System: AMES SALMONELLA TYPHIMURIUM, Strain/Indicator: TA97, Metabolic Activation: NONE, Method: STANDARD PLATE) read?
Answer: Its mutagenic call is “active; positive”.

Question: And the mutagenic call (Test System: AMES SALMONELLA TYPHIMURIUM, Strain/Indicator: TA97, Metabolic Activation: RAT, LIVER, S-9, DELOR 103, Method: STANDARD PLATE)?
Answer: The mutagenic call was “active; positive”.

Question: What about the mutagenic call (Test System: AMES SALMONELLA TYPHIMURIUM, Strain/Indicator: TA97, Metabolic Activation: RAT, LIVER, S-9, PHENOBARBITAL, Method: STANDARD PLATE) of the same compound?
Answer: Its mutagenic call is “active; positive”.

Question: And the mutagenic call (Test System: AMES SALMONELLA TYPHIMURIUM, Strain/Indicator: TA98, Metabolic Activation: NONE, Method: STANDARD PLATE)?
Answer: The mutagenic call was “inactive; negative”.

Question: And the mutagenic call (Test System: AMES SALMONELLA TYPHIMURIUM, Strain/Indicator: TA98, Metabolic Activation: RAT, LIVER, S-9, DELOR 103, Method: STANDARD PLATE)?
Answer: The mutagenic call was “inactive; negative”.

Question: And the mutagenic call (Test System: AMES SALMONELLA TYPHIMURIUM, Strain/Indicator: TA98, Metabolic Activation: RAT, LIVER, S-9, PHENOBARBITAL, Method: STANDARD PLATE)?
Answer: The mutagenic call was “inactive; negative”.

Question: And the mutagenic call (Test System: AMES SALMONELLA TYPHIMURIUM, Strain/Indicator: TA100, Metabolic Activation: NONE, Method: STANDARD PLATE)?
Answer: The mutagenic call was “active; positive”.

Question: And the mutagenic call (Test System: AMES SALMONELLA TYPHIMURIUM, Strain/Indicator: TA100, Metabolic Activation: RAT, LIVER, S-9, DELOR 103, Method: STANDARD PLATE)?
Answer: Its mutagenic call is “active; positive”.

Question: And the mutagenic call (Test System: AMES SALMONELLA TYPHIMURIUM, Strain/Indicator: TA100, Metabolic Activation: RAT, LIVER, S-9, PHENOBARBITAL, Method: STANDARD PLATE)?
Answer: The mutagenic call was “active; positive”.

Question: What about the mutagenic call (Test System: AMES SALMONELLA TYPHIMURIUM, Strain/Indicator: TA100, Metabolic Activation: S-9 MIX, Method: STANDARD PLATE) of the same compound?
Answer: Its mutagenic call is “active; positive”.

Question: What about the mutagenic call (Test System: AMES SALMONELLA TYPHIMURIUM, Strain/Indicator: TA1535, Metabolic Activation: NONE, Method: STANDARD PLATE) of the same compound?
Answer: Its mutagenic call is “inactive; negative”.

Question: What about the mutagenic call (Test System: AMES SALMONELLA TYPHIMURIUM, Strain/Indicator: TA1535, Metabolic Activation: RAT, LIVER, S-9, DELOR 103, Method: STANDARD PLATE) of the same compound?
Answer: Its mutagenic call is “inactive; negative”.

Question: What about the mutagenic call (Test System: AMES SALMONELLA TYPHIMURIUM, Strain/Indicator: TA1535, Metabolic Activation: RAT, LIVER, S-9, PHENOBARBITAL, Method: STANDARD PLATE) of the same compound?
Answer: The mutagenic call was “inactive; negative”.

Question: What about the mutagenic call (Test System: AMES SALMONELLA TYPHIMURIUM, Strain/Indicator: TA1538, Metabolic Activation: NONE, Method: STANDARD PLATE) of the same compound?
Answer: The mutagenic call was “inactive; negative”.

Question: What about the mutagenic call (Test System: AMES SALMONELLA TYPHIMURIUM, Strain/Indicator: TA1538, Metabolic Activation: RAT, LIVER, S-9, DELOR 103, Method: STANDARD PLATE) of the same compound?
Answer: The mutagenic call was “inactive; negative”.

Question: And the mutagenic call (Test System: AMES SALMONELLA TYPHIMURIUM, Strain/Indicator: TA1538, Metabolic Activation: RAT, LIVER, S-9, PHENOBARBITAL, Method: STANDARD PLATE)?
Answer: Its mutagenic call is “inactive; negative”.

Question: What about the mutagenic call (Test System: CHINESE HAMSTER V-79, Strain/Indicator: V-79/6-THIOGUANINE, Metabolic Activation: NONE, Method: RESPREADING) of the same compound?
Answer: The mutagenic call was “inactive; negative”.

Question: What about the mutagenic call (Test System: CHINESE HAMSTER V-79, Strain/Indicator: V-79/6-THIOGUANINE, Metabolic Activation: RAT, LIVER, S-9, Method: RESPREADING) of the same compound?
Answer: The mutagenic call was “active; positive”.

Question: Which results are given for `COC(=O)Nc1nc2ccc(S(=O)c3ccccc3)cc2[nH]1` (stereo unspecified)?
Answer: mutagenic call (End Point: In vivo chromosomal aberrations, Test System: Bone marrow cells, Species: Mouse, Strain/Sex: Swiss /Female, Route: Oral): active; positive (structural changes and ploidy); mutagenic call (End Point: In vivo chromosomal aberrations, Test System: Bone marrow cells, Species: Mouse, Strain/Sex: Swiss /Male, Route: Oral): active; positive (structural changes and ploidy); mutagenic call (End Point: In vivo chromosomal aberrations, Test System: Spermatocytes, Species: Mouse, Strain/Sex: Swiss /Male, Route: Oral): active; positive (ploidy)

Question: How did the mutagenic call (Test System: AMES SALMONELLA TYPHIMURIUM, Strain/Indicator: TA100, Metabolic Activation: RAT, LIVER, S-9, PHENOBARBITAL AND 5,6-BENZOFLAVONE, Method: PREINCUBATION) turn out when `Clc1ccnc2ccccc12` was run?
Answer: The mutagenic call was “active; positive”.

Source: PubChem BioAssay AID1259407 (Chemical Carcinogenesis Research Information System (CCRIS), 2018)
